Test results reported in US11541120B2, “Phosphonium-based ionic drug conjugates” (Anthos Partners, LP, priority 2017, dated 2023).
≈ marks a conversion by molar mass, not a printed value.

Test system: not listed separately
Assay: Caco-2 cell permeability
Conditions: human, Caco-2

Papp A→B | Papp B→A | efflux ratio | Molecule
34.5 ×10⁻⁶ cm/s | 13.5 ×10⁻⁶ cm/s | – | O=C(O)Cc1ccccc1Nc1c(Cl)cccc1Cl [Diclofenac, reference compound]
32.6 ×10⁻⁶ cm/s | 3.23 ×10⁻⁶ cm/s | 0.0989 | CC[C@H]1[C@@H](O)[C@@H]2[C@H](CC[C@]3(C)[C@@H]([C@H](C)CCC(=O)O)CC[C@@H]23)[C@@]2(C)CC[C@@H](O)C[C@@H]12 [Obeticholic acid, reference compound]

Molecule | Papp A→B | Papp B→A | efflux ratio
CC(C)Cc1ccc(C(C)C(=O)O)cc1 (centres unmarked) [Ibuprofen, reference compound] | 40.5 ×10⁻⁶ cm/s | 19 ×10⁻⁶ cm/s | –

Test system: Caco-2
Assay: Caco-2 cell permeability
Conditions: No Inhibitor

Molecule | Mean (B-A/A-B) Efflux Ratio | Mean Papp A-B | Mean Papp B-A
CC(C)Cc1ccc(C(C)C(=O)[O-])cc1.COC1=C(OC)C(=O)C(CCCCCCCCCC[P+](c2ccccc2)(c2ccccc2)c2ccccc2)=C(C)C1=O [Ibuprofen-MitoQ, Ibuprofen MitoQ conjugate] | 0.467 | 52.1 10^−6 cm/s | 24.3 10^−6 cm/s
CCC1C(O)C2C3CCC(C(C)CCC(=O)[O-])C3(C)CCC2C2(C)CCC(O)CC12.COC1=C(OC)C(=O)C(CCCCCCCCCC[P+](c2ccccc2)(c2ccccc2)c2ccccc2)=C(C)C1=O [Obeticholic acid-MitoQ] | 0.0872 | 18.9 10^−6 cm/s | 1.65 10^−6 cm/s
Obeticholic acid-TPMP | 0.103 | 20.5 10^−6 cm/s | 2.11 10^−6 cm/s

Test system: not listed separately
Assay: Water solubility of PBICs
Format: physicochemical
Conditions: not given
Protocol: (§1) The water solubilties and partition coefficients of the PBICs were measured and compared to the values of the therapeutic agent by itself. To determine the partition coefficient Log D7.4 data provided in Table 2, a solution of the compound or conjugate was prepared in aqueous phosphate buffered saline (PBS) at a concentration of 100 micromolar (μM). The PBS solution was shaken with octanol. Thus, in Table 2, Log D7.4=Log (concentration in octanol/concentration in aqueous phosphate buffered saline (PBS))=Log[(initial concentration in PBS−final concentration in PBS)/final concentration in PBS], as the concentration in octanol is derived from the loss of compound from the aqueous PBS layer.

Molecule | Water solubility, Drug
CC(C)Cc1ccc(C(C)C(=O)O)cc1 (centres unmarked) [Ibuprofen, reference compound] | 21.0 mg/L

Same assay, conditions: MitoQ conjugate of the drug

Molecule | Water solubility, MitoQ Conjugate
CC(C)Cc1ccc(C(C)C(=O)[O-])cc1.COC1=C(OC)C(=O)C(CCCCCCCCCC[P+](c2ccccc2)(c2ccccc2)c2ccccc2)=C(C)C1=O [Ibuprofen-MitoQ, Ibuprofen MitoQ conjugate] | Insoluble

Same assay, conditions: TPMP conjugate of the drug

Molecule | Water solubility, TPMP Conjugate
(R)-3-Hydroxybutyric Acid-TPMP conjugate [R-3-Hydroxybutyric acid TPMP Conjugate] | 2,867,500.0 mg/L
Baclofen-TPMP conjugate [Baclofen TPMP Conjugate] | 13,500.0 mg/L
Captopril TPMP conjugate | 3,036,666.7 mg/L
Deoxycholic acid TPMP conjugate | 2,518,000.0 mg/L
Diflunisal-TPMP conjugate [Diflunisal TPMP Conjugate] | 1,518,333.3 mg/L
Indomethacin-TPMP conjugate [Indomethacin TPMP Conjugate] | 1,700,000.0 mg/L
L-Thyroxine TPMP conjugate [Levothyroxine TPMP Conjugate] | <400 mg/L
Latanoprost Acid-TPMP conjugate [Latanoprost TPMP Conjugate] | 2,187,777.8 mg/L
Retinoic Acid-TPMP conjugate [Retinoic acid TPMP Conjugate] | 2,624,000.0 mg/L
Travoprost Acid-TPMP conjugate [Travoprost TPMP Conjugate] | 1,921,666.7 mg/L
Treprostinil TPMP conjugate | 2,558,000.0 mg/L
racemic 3-Hydroxybutyric Acid-TPMP conjugate [3-hydroxybutyric acid TPMP Conjugate] | 4,332,500.0 mg/L

Same assay, conditions: parent drug by itself

Water solubility, Drug | Molecule
43.6 mg/L | C[C@H](CCC(=O)O)[C@H]1CC[C@H]2[C@@H]3CC[C@@H]4C[C@H](O)CC[C@]4(C)[C@H]3C[C@H](O)[C@]12C [Deoxycholic acid]
1,000.0 mg/L | CC1=C(/C=C/C(C)=C/C=C/C(C)=C/C(=O)O)C(C)(C)CCC1 [Retinoic acid]

Same assay, conditions: water; parent drug by itself

Molecule | solubility
CC(O)CC(=O)O (racemic) [3-hydroxybutyric acid] | 444000 µg/mL (≈ 4260 mM)
NCC(CC(=O)O)c1ccc(Cl)cc1 (centres unmarked) [Baclofen] | 700 µg/mL (≈ 3.28 mM)
C[C@H](CS)C(=O)N1CCC[C@H]1C(=O)O [Captopril] | 160000 µg/mL (≈ 736 mM)

Continued, values first:

solubility | Molecule
14.5 µg/mL (≈ 0.058 mM) | O=C(O)c1cc(-c2ccc(F)cc2F)ccc1O [Diflunisal]
0.9 µg/mL (≈ 0.00252 mM) | COc1ccc2c(c1)c(CC(=O)O)c(C)n2C(=O)c1ccc(Cl)cc1 [Indomethacin]
8 µg/mL (≈ 0.0185 mM) | CC(C)OC(=O)CCC/C=C\C[C@@H]1[C@@H](CC[C@@H](O)CCc2ccccc2)[C@H](O)C[C@@H]1O [Latanoprost]
0.2 µg/mL (≈ 0.000257 mM) | N[C@@H](Cc1cc(I)c(Oc2cc(I)c(O)c(I)c2)c(I)c1)C(=O)O [Levothyroxine]
444000 µg/mL (≈ 4260 mM) | C[C@@H](O)CC(=O)O [R-3-Hydroxybutyric acid, (R)-3-hydroxybutyric acid]
1 µg/mL (≈ 0.00251 mM) | O=C(O)c1cc(/N=N/c2ccc(S(=O)(=O)Nc3ccccn3)cc2)ccc1O [Sulfasalazine]
7 µg/mL (≈ 0.014 mM) | CC(C)OC(=O)CCC/C=C\C[C@@H]1[C@@H](/C=C/[C@@H](O)COc2cccc(C(F)(F)F)c2)[C@H](O)C[C@@H]1O [Travoprost]
7 µg/mL (≈ 0.0179 mM) | CCCCC[C@H](O)CC[C@@H]1[C@H]2Cc3cccc(OCC(=O)O)c3C[C@H]2C[C@H]1O [Treprostinil]

Test system: not given
Assay: not given
Conditions: parent drug; cited from earlier work

Molecule | LogP (Reported)
CC[C@H]1[C@@H](O)[C@@H]2[C@H](CC[C@]3(C)[C@@H]([C@H](C)CCC(=O)O)CC[C@@H]23)[C@@]2(C)CC[C@@H](O)C[C@@H]12 [Obeticholic acid, reference compound] | 3.5

Test system: not listed separately
Assay: Partition coefficient octanol/PBS (LogD7.4)
Format: physicochemical
Conditions: 100 μM in PBS shaken with octanol
Protocol: as §1

Molecule | (Conc. in octanol)/(Conc. in PBS) | LogD7.4
CC(C)Cc1ccc(C(C)C(=O)[O-])cc1.COC1=C(OC)C(=O)C(CCCCCCCCCC[P+](c2ccccc2)(c2ccccc2)c2ccccc2)=C(C)C1=O [Ibuprofen-MitoQ, Ibuprofen MitoQ conjugate] | 9.94 | 1.00
CCC1C(O)C2C3CCC(C(C)CCC(=O)[O-])C3(C)CCC2C2(C)CCC(O)CC12.COC1=C(OC)C(=O)C(CCCCCCCCCC[P+](c2ccccc2)(c2ccccc2)c2ccccc2)=C(C)C1=O [Obeticholic acid-MitoQ] | 624.00 | 2.80
Obeticholic acid-TPMP | 1,182.39 | 3.07
